Results published in publication PMC8402609, “Guiding the Immune Response to a Conserved Epitope in MSP2, an Intrinsically Disordered Malaria Vaccine Candidate” (Vaccines, 2021).
Read-outs that look alike come from different tables or passages of the source. Where a SMILES comes first, the peptide text is derived from it. Bridges are numbered along the chain shown (N, C = ends).

Experiments:
[1] = target: 9H4 IgG; experiment: SPR competition binding assay, mAb 9H4; parameters: species or system mouse; conditions: SPR competition assay (Biacore T200); 3D7 MSP2 immobilised on CM5 chip; eight three-fold dilutions of peptide from 10 µM with 50 nM 9H4 IgG; alanine scan of 16-residue MSP2_207–222; read-out: Kd against 9H4 IgG
Description: (§1) Affinities for peptide epitopes and dimer peptides to 4D11 and 9H4 IgG were measured by surface plasmon resonance (SPR) (Biacore T200, GE Healthcare, Parramatta, Australia) using a competition assay method developed previously. First, 3D7 MSP2 was immobilised on a CM5 chip. To determine binding, eight three-fold dilutions of peptide, from 10 µM stock were added with 50 nM 4D11/9H4 IgG to compete with the immobilised antigen. A standard curve was established by flowing eight two-fold dilutions of 4D11 or 9H4 IgG from a 100 nM stock solution.
In our previous work, the minimal epitope and key residues involved in 4D11 binding were defined as the 8-residue peptide 3D7-MSP2_215–222, with Lys216, Glu217 and Asn218 crucial for binding. To characterise the epitope of 9H4 and compare it with that of 4D11, the same alanine-scan peptides were used to probe 9H4 binding (Figure 1A,B). Affinities for 9H4 binding were measured by SPR, using a competition binding assay described previously.

[2] = target: 4D11 IgG; experiment: SPR competition binding assay, mAb 4D11; parameters: species or system mouse; conditions: read-out: Kd against 4D11 IgG
Description: as §1
Following the MD simulations, each peptide was synthesised by standard Fmoc synthesis. Orthogonal protection of cysteines was used to ensure that the desired disulfide bond was formed, leaving a single free cysteine for conjugation to an appropriate carrier for immunisation. […] Consequently, disulfide bond formation and cyclisation coupling were performed in solution. To determine if the additions incorporated into the dimer sequence hindered binding to 4D11, SPR was used to measure their binding affinity to the mAb (Table 2). […] For immunisations, the commonly used carrier protein, keyhole limpet hemocyanin (KLH) was chosen. As conjugation to KLH required a free thiol, an additional cysteine residue was included in all of the peptides (Figure 2).

[3] = SPR competition assay (Biacore T200), 3D7 MSP2 immobilised on CM5 chip, eight three-fold dilutions of peptide from 10 µM with 50 nM 4D11 IgG, alanine scan of 16-residue MSP2_207–222
[4] = SPR competition binding assay, peptides for KLH conjugation (Table 2), 3D7 MSP2 on CM5 chip, 50 nM 4D11 IgG

Row | SMILES | Kd [1] [nM] | Kd [2, 3] [nM] | Kd [2, 4] [nM]
1 | CC(=O)N[C@@H](CO)C(=O)N[C@@H](CCC(N)=O)C(=O)N[C@@H](CCCCN)C(=O)N[C@@H](C)C(=O)N[C@H]1CSSC[C@@H](C(=O)NCC(=O)N[C@@H](C)C(=O)N[C@@H](C)C(N)=O)NC(=O)[C@H](CC(N)=O)NC(=O)[C@H](CCC(=O)O)NC(=O)[C@H](CCCCN)NC(=O)[C@H](CC(N)=O)NC(=O)CNC(=O)[C@H](CC(=O)O)NC(=O)[C@H]([C@@H](C)O)NC1=O [Peptide E210A] (Ac-SQKACTDGNKENCGAA-NH2; disulfide 5-13) | 1400 | 500 | –
2 | C[C@@H]1NC(=O)CNC(=O)[C@@H]2CSSC[C@H](NC(=O)[C@H](CC(N)=O)NC(=O)[C@H](CCC(=O)O)NC(=O)[C@H](CCCCN)NC(=O)[C@H](CC(N)=O)NC(=O)CNC(=O)CNC(=O)[C@H](C)NC1=O)C(=O)NCC(=O)N[C@@H](C)C(=O)N[C@@H](C)C(=O)N[C@@H](CS)C(=O)NCC(=O)N[C@@H](CC(N)=O)C(=O)N[C@@H](CCCCN)C(=O)N[C@@H](CCC(=O)O)C(=O)N[C@@H](CC(N)=O)C(=O)N2 [Peptide C2] (cyclo(AACGNKENCGAAGGNKENCG); disulfide 9-19) | – | – | 680
3 | CC(=O)N[C@@H](CO)C(=O)N[C@@H](C)C(=O)N[C@@H](CCCCN)C(=O)N[C@@H](CCC(=O)O)C(=O)N[C@H]1CSSC[C@@H](C(=O)NCC(=O)N[C@@H](C)C(=O)N[C@@H](C)C(N)=O)NC(=O)[C@H](CC(N)=O)NC(=O)[C@H](CCC(=O)O)NC(=O)[C@H](CCCCN)NC(=O)[C@H](CC(N)=O)NC(=O)CNC(=O)[C@H](CC(=O)O)NC(=O)[C@H]([C@@H](C)O)NC1=O [Peptide Q208A] (Ac-SAKECTDGNKENCGAA-NH2; disulfide 5-13) | 2900 | 400 | –
4 | CC(=O)N[C@@H](CO)C(=O)N[C@@H](CCC(N)=O)C(=O)N[C@@H](CCCCN)C(=O)N[C@@H](CCC(=O)O)C(=O)N[C@H]1CSSC[C@@H](C(=O)N[C@@H](C)C(=O)N[C@@H](C)C(=O)N[C@@H](C)C(N)=O)NC(=O)[C@H](CC(N)=O)NC(=O)[C@H](CCC(=O)O)NC(=O)[C@H](CCCCN)NC(=O)[C@H](CC(N)=O)NC(=O)CNC(=O)[C@H](CC(=O)O)NC(=O)[C@H]([C@@H](C)O)NC1=O [Peptide G220A] (Ac-SQKECTDGNKENCAAA-NH2; disulfide 5-13) | 2900 | 42200 | –
5 | CC(=O)N[C@@H](CO)C(=O)N[C@@H](CCC(N)=O)C(=O)N[C@@H](CCCCN)C(=O)N[C@@H](CCC(=O)O)C(=O)N[C@H]1CSSC[C@@H](C(=O)NCC(=O)N[C@@H](C)C(=O)N[C@@H](C)C(N)=O)NC(=O)[C@H](CC(N)=O)NC(=O)[C@H](CCC(=O)O)NC(=O)[C@H](CCCCN)NC(=O)[C@H](CC(N)=O)NC(=O)CNC(=O)[C@H](C)NC(=O)[C@H]([C@@H](C)O)NC1=O [Peptide D213A] (Ac-SQKECTAGNKENCGAA-NH2; disulfide 5-13) | – | 500 | –
6 | CC(=O)N[C@@H](CC(N)=O)C(=O)N[C@@H](CCCCN)C(=O)N[C@@H](CCC(=O)O)C(=O)N[C@@H](CC(N)=O)C(=O)N[C@H]1CSSC[C@@H](C(=O)NCC(=O)N[C@@H](C)C(=O)N[C@@H](C)C(=O)N[C@@H](CS)C(N)=O)NC(=O)[C@H](CC(N)=O)NC(=O)[C@H](CCC(=O)O)NC(=O)[C@H](CCCCN)NC(=O)[C@H](CC(N)=O)NC(=O)CNC(=O)CNC(=O)CNC(=O)[C@H](C)NC(=O)[C@H](C)NC(=O)CNC1=O [Peptide L3] (Ac-NKENCGAAGGGNKENCGAAC-NH2; disulfide 5-16) | – | – | 580
7 | CC(=O)N[C@@H](CO)C(=O)N[C@@H](CCC(N)=O)C(=O)N[C@@H](CCCCN)C(=O)N[C@@H](CCC(=O)O)C(=O)N[C@H]1CSSC[C@@H](C(=O)NCC(=O)N[C@@H](C)C(=O)N[C@@H](C)C(N)=O)NC(=O)[C@H](CC(N)=O)NC(=O)[C@H](CCC(=O)O)NC(=O)[C@H](CCCCN)NC(=O)[C@H](CC(N)=O)NC(=O)CNC(=O)[C@H](CC(=O)O)NC(=O)[C@H]([C@@H](C)O)NC1=O [3D7-MSP2_207–222 (WT)] (Ac-SQKECTDGNKENCGAA-NH2; disulfide 5-13) | 1500 | 900 | –
8 | CC(=O)N[C@@H](CO)C(=O)N[C@@H](CCC(N)=O)C(=O)N[C@@H](CCCCN)C(=O)N[C@@H](CCC(=O)O)C(=O)N[C@H]1CSSC[C@@H](C(=O)NCC(=O)N[C@@H](C)C(=O)N[C@@H](C)C(N)=O)NC(=O)[C@H](CC(N)=O)NC(=O)[C@H](CCC(=O)O)NC(=O)[C@H](CCCCN)NC(=O)[C@H](CC(N)=O)NC(=O)[C@H](C)NC(=O)[C@H](CC(=O)O)NC(=O)[C@H]([C@@H](C)O)NC1=O [Peptide G214A] (Ac-SQKECTDANKENCGAA-NH2; disulfide 5-13) | 70 | 400 | –
9 | CC(=O)N[C@@H](CO)C(=O)N[C@@H](CCC(N)=O)C(=O)N[C@@H](CCCCN)C(=O)N[C@@H](CCC(=O)O)C(=O)N[C@H]1CSSC[C@@H](C(=O)NCC(=O)N[C@@H](C)C(=O)N[C@@H](C)C(N)=O)NC(=O)[C@H](CC(N)=O)NC(=O)[C@H](CCC(=O)O)NC(=O)[C@H](CCCCN)NC(=O)[C@H](CC(N)=O)NC(=O)CNC(=O)[C@H](CC(=O)O)NC(=O)[C@H](C)NC1=O [Peptide T212A] (Ac-SQKECADGNKENCGAA-NH2; disulfide 5-13) | 4800 | 500 | –
10 | C[C@@H]1NC(=O)CNC(=O)[C@@H]2CSSC[C@H](NC(=O)[C@H](CC(N)=O)NC(=O)[C@H](CCC(=O)O)NC(=O)[C@H](CCCCN)NC(=O)[C@H](CC(N)=O)NC(=O)CNC(=O)[C@H](CS)NC(=O)CNC(=O)[C@H](C)NC1=O)C(=O)NCC(=O)N[C@@H](C)C(=O)N[C@@H](C)C(=O)NCC(=O)NCC(=O)NCC(=O)N[C@@H](CC(N)=O)C(=O)N[C@@H](CCCCN)C(=O)N[C@@H](CCC(=O)O)C(=O)N[C@@H](CC(N)=O)C(=O)N2 [Peptide C3] (cyclo(AAGCGNKENCGAAGGGNKENCG); disulfide 10-21) | – | – | 1040
11 | CC(=O)N[C@@H](CO)C(=O)N[C@@H](CCC(N)=O)C(=O)N[C@@H](CCCCN)C(=O)N[C@@H](CCC(=O)O)C(=O)N[C@H]1CSSC[C@@H](C(=O)NCC(=O)N[C@@H](C)C(=O)N[C@@H](C)C(N)=O)NC(=O)[C@H](CC(N)=O)NC(=O)[C@H](C)NC(=O)[C@H](CCCCN)NC(=O)[C@H](CC(N)=O)NC(=O)CNC(=O)[C@H](CC(=O)O)NC(=O)[C@H]([C@@H](C)O)NC1=O [Peptide E217A] (Ac-SQKECTDGNKANCGAA-NH2; disulfide 5-13) | 90 | 219000 | –
12 | CC(=O)N[C@@H](C)C(=O)N[C@@H](CCC(N)=O)C(=O)N[C@@H](CCCCN)C(=O)N[C@@H](CCC(=O)O)C(=O)N[C@H]1CSSC[C@@H](C(=O)NCC(=O)N[C@@H](C)C(=O)N[C@@H](C)C(N)=O)NC(=O)[C@H](CC(N)=O)NC(=O)[C@H](CCC(=O)O)NC(=O)[C@H](CCCCN)NC(=O)[C@H](CC(N)=O)NC(=O)CNC(=O)[C@H](CC(=O)O)NC(=O)[C@H]([C@@H](C)O)NC1=O [Peptide S207A] (Ac-AQKECTDGNKENCGAA-NH2; disulfide 5-13) | 2900 | 500 | –
13 | CC(=O)N[C@@H](CO)C(=O)N[C@@H](CCC(N)=O)C(=O)N[C@@H](CCCCN)C(=O)N[C@@H](CCC(=O)O)C(=O)N[C@H]1CSSC[C@@H](C(=O)NCC(=O)N[C@@H](C)C(=O)N[C@@H](C)C(N)=O)NC(=O)[C@H](C)NC(=O)[C@H](CCC(=O)O)NC(=O)[C@H](CCCCN)NC(=O)[C@H](CC(N)=O)NC(=O)CNC(=O)[C@H](CC(=O)O)NC(=O)[C@H]([C@@H](C)O)NC1=O [Peptide N218A] (Ac-SQKECTDGNKEACGAA-NH2; disulfide 5-13) | 2700 | 6000 | –
14 | CC(=O)N[C@@H](CC(N)=O)C(=O)N[C@@H](CCCCN)C(=O)N[C@@H](CCC(=O)O)C(=O)N[C@@H](CC(N)=O)C(=O)N[C@H]1CSSC[C@@H](C(=O)NCC(=O)N[C@@H](C)C(=O)N[C@@H](C)C(=O)N[C@@H](CS)C(N)=O)NC(=O)[C@H](CC(N)=O)NC(=O)[C@H](CCC(=O)O)NC(=O)[C@H](CCCCN)NC(=O)[C@H](CC(N)=O)NC(=O)CNC(=O)CNC(=O)[C@H](C)NC(=O)[C@H](C)NC(=O)CNC1=O [Peptide L2] (Ac-NKENCGAAGGNKENCGAAC-NH2; disulfide 5-15) | – | – | 670
15 | CC(=O)N[C@@H](CO)C(=O)N[C@@H](CCC(N)=O)C(=O)N[C@@H](CCCCN)C(=O)N[C@@H](CCC(=O)O)C(=O)N[C@H]1CSSC[C@@H](C(=O)NCC(=O)N[C@@H](C)C(=O)N[C@@H](C)C(N)=O)NC(=O)[C@H](CC(N)=O)NC(=O)[C@H](CCC(=O)O)NC(=O)[C@H](C)NC(=O)[C@H](CC(N)=O)NC(=O)CNC(=O)[C@H](CC(=O)O)NC(=O)[C@H]([C@@H](C)O)NC1=O [Peptide K216A] (Ac-SQKECTDGNAENCGAA-NH2; disulfide 5-13) | 90 | 21000 | –
